In publication PMC9604401 (International Journal of Molecular Sciences, 2022):
Read-outs that look alike come from different tables or passages of the source.

Experiments:
SARS-CoV-2 nsp1_10-126 [1] = molecular target: T1, SARS-CoV-2 nsp1_10-126 (Severe acute respiratory syndrome coronavirus 2, UniProt P0DTD1); assay: Thermal shift assay (TSA) by nanoDSF; format: binding; conditions: 4 mM fragment; for TSA effect on unfolding of the protein, in words / TSA Ti ± SD: 2.0% DMSO; for TSA |ΔTi|-3SD: > 0 regarded as statistically significant; for TSA ΔTi: Ti (protein-fragment) − Ti (protein-DMSO), control Ti 54.05 °C in 2.0% DMSO; for TSA Ti ± SD: nanoDSF, 1.25 mg/mL protein, n = 3, APUC = atypical protein unfolding curve
Text: For TSA, nsp1 in the presence of an equal concentration of DMSO was used as a control to offset the influence of DMSO on the protein. The averaged change of inflection temperature (△Ti) of the protein in the presence of fragments higher than three-fold of standard deviation (|△Ti|-3*SD > 0) was regarded as statistically significant. […] In this regard, TSA may not be suitable yet for the validation of hits against SARS-CoV-2 nsp1_10-126, as we have recently also observed for another SARS-CoV-2 protein, nsp10 [41]. With respect to physicochemical properties, calculated values for fragments are well within the expected range, indicating good starting points for structure-based drug design.
The protein concentration used in this assay was determined by analysing the unfolding curves of SARS-CoV-2 nsp1_10-126 at different concentrations in the presence of 2% DMSO. Fragments dissolved in DMSO (200 mM stocks) were diluted in buffer E supplied with 0.05% Pluronic® F-127 and mixed with nsp1_10-126. The final concentration of fragments was 4 mM containing 2.0% DMSO, while the final protein concentration was 1.25 mg/mL. After centrifugation for 5 min at 6000 rpm, the samples were loaded into Tycho NT.6 capillaries (TY-C001, NanoTemper, München, Germany) with 1.25 mg/mL SARS-CoV-2 nsp1_10-126 in the presence of 2% DMSO as control and measured by the Tycho NT.6 instrument (NanoTemper, München, Germany) in triplicate. The resulting Ti values are presented as means ± SD (n = 3) and the △Ti values for each sample were calculated with the following equation. △Ti = Ti (protein-fragment) − Ti (protein-DMSO)

SARS-CoV-2 nsp1_10-126 [2] = molecular target: T1, SARS-CoV-2 nsp1_10-126; assay: Microscale thermophoresis (MST) binding affinity
MERS nsp1 = MERS nsp1 (Middle East respiratory syndrome-related coronavirus, UniProt K9N7C7); assay: biochemical; format: binding
SARS-CoV-1 nsp1 = SARS-CoV-1 nsp1 (Severe acute respiratory syndrome coronavirus, UniProt P0C6X7); assay: biochemical; format: binding

Chain of MERS nsp1 (K9N7C7 2-193 limits assumed): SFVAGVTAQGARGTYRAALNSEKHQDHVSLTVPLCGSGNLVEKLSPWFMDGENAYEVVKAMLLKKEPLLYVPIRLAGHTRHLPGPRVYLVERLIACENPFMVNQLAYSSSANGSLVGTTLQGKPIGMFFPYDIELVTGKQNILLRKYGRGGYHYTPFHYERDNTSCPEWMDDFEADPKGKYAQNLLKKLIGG

SMILES	TSA effect on unfolding of the protein, in words (SARS-CoV-2 nsp1_10-126 [1])	TSA |ΔTi|-3SD (SARS-CoV-2 nsp1_10-126 [1]) [°C]	TSA ΔTi (SARS-CoV-2 nsp1_10-126 [1]) [°C]	TSA Ti ± SD (SARS-CoV-2 nsp1_10-126 [1])	Kd (SARS-CoV-2 nsp1_10-126 [2]) [mM]	MERS nsp1 MST, Kd (MERS nsp1)	Cross-binding to SARS-CoV-1 nsp1 by MST, in words (SARS-CoV-1 nsp1)	Kd (SARS-CoV-1 nsp1) [mM]	Kd (SARS-CoV-2 nsp1_10-126 [2]; read-out: SARS-CoV-2 nsp1 MST, Kd) [mM]	SARS-CoV-1 nsp1 MST, Kd (SARS-CoV-1 nsp1)	Cross-binding to MERS nsp1 by MST, in words (MERS nsp1)	Kd (MERS nsp1) [mM]
CNCc1csc(-c2cccc(Cl)c2)n1 [Fragment 11C6]	Destabilisation effects	0.13	−0.27	53.78 ± 0.05 °C	1.16 ± 0.22	n.i.	strong cross-binding effects	0.38 ± 0.14	–	–	–	–
C[C@H](N)c1ccc(Cl)cc1 [Fragment 7H2]	Destabilisation effects	–	−0.50	53.55 ± 0.25 °C	> 20	n.i	no binding	–	> 20	n.i.	–	–
Nc1nc(-c2ccc(O)cc2)cs1 [Fragment 10B6]	Destabilisation effects	2.33	−2.79	51.27 ± 0.15 °C	0.56 ± 0.19	–	–	> 20	–	–	moderate binding affinity	4.92 ± 4.19
OCCNCc1ccccc1 [Fragment 8E6]	Destabilisation effects	0.67	−1.33	52.72 ± 0.22 °C	8.32 ± 3.32	–	–	> 20	–	–	–	> 20
CNCc1ccc(-c2cccs2)cc1 [Fragment 5E11]	atypical unfolding curves	–	–	APUC	0.48 ± 0.3	–	–	12.8 ± 24.1	–	–	–	> 20
